In ChEMBL document CHEMBL5724914, “Linking interpersonal differences in gut microbiota composition and drug biotransformation activity” (2024):

How the values were obtained:
[1] = human gut metagenome, 24 h, 2 µM
[2] = human gut metagenome, 24 h, 2 µM; remark: listed apart in the source
[3] = (§1) The drug is tested on Z-023 corresponding to metagenome with ENA study accession number: PRJEB37062 and ENA sample accession number: ERS12561822 for biotransformation under anaerobic condition. The drug concentrations were measured over 9 timepoints collected between 0 and 24 hours of incubation by liquid-chromatography-coupled mass spectrometry (LC–MS); details: 2 µM
[4] = (§2) The drug is tested on Z-007 corresponding to rat gut metagenome with ENA study accession number: PRJEB37062 and ENA sample accession number: ERS12561807 for biotransformation under anaerobic condition. The drug concentrations were measured over 9 timepoints collected between 0 and 24 hours of incubation by liquid-chromatography-coupled mass spectrometry (LC–MS); details: 2 µM
[5] = as §2, with “on WLS-077” for “on Z-007”, “to human” for “to rat”, “number: ERS12561750” for “number: ERS12561807”; details: 2 µM
[6] = as §2, with “on Z-001” for “on Z-007”, “to mouse” for “to rat”, “number: ERS12561801” for “number: ERS12561807”; details: 2 µM
[7] = as §2, with “on WLS-007” for “on Z-007”, “to human” for “to rat”, “number: ERS12561742” for “number: ERS12561807”; details: 2 µM
[8] = as §2, with “on WLS-069” for “on Z-007”, “to human” for “to rat”, “number: ERS12561748” for “number: ERS12561807”; details: 2 µM
[9] = human gut metagenome, 24 h, 2 µM; remark: listed apart in the source
[10] = as §1, with “Z-021” for “Z-023”, “ERS12561820” for “ERS12561822”; details: 2 µM
[11] = human gut metagenome, 24 h, 2 µM; remark: listed apart in the source
[12] = human gut metagenome, 24 h, 2 µM; remark: listed apart in the source
[13] = human gut metagenome, 24 h, 2 µM; remark: listed apart in the source
[14] = human gut metagenome, 24 h, 2 µM; remark: listed apart in the source
[15] = as §2, with “on Z-016” for “on Z-007”, “to mouse” for “to rat”, “number: ERS12561815” for “number: ERS12561807”; details: 2 µM
[16] = as §2, with “on Z-030” for “on Z-007”, “to mouse” for “to rat”, “number: ERS12561829” for “number: ERS12561807”; details: 2 µM
[17] = human gut metagenome, 24 h, 2 µM; remark: listed apart in the source
[18] = human gut metagenome, 24 h, 2 µM; remark: listed apart in the source
[19] = human gut metagenome, 24 h, 2 µM; remark: listed apart in the source
[20] = human gut metagenome, 24 h, 2 µM; remark: listed apart in the source
Further: call rule not given here.

SMILES | Bacterial Biotransformation [1] | Bacterial Biotransformation [2] | Bacterial Biotransformation [3] | Bacterial Biotransformation [4] | Bacterial Biotransformation [5] | Bacterial Biotransformation [6] | Bacterial Biotransformation [7] | Bacterial Biotransformation [8] | Bacterial Biotransformation [9] | Bacterial Biotransformation [10] | Bacterial Biotransformation [11] | Bacterial Biotransformation [12] | Bacterial Biotransformation [13] | Bacterial Biotransformation [14] | Bacterial Biotransformation [15] | Bacterial Biotransformation [16] | Bacterial Biotransformation [17] | Bacterial Biotransformation [18] | Bacterial Biotransformation [19] | Bacterial Biotransformation [20]
CN(C)C(=O)Oc1cc(OC(=O)N(C)C)cc(C(O)CNC(C)(C)C)c1 (stereo not given) [BAMBUTEROL] | Compound NOT metabolized | Compound metabolized | Compound metabolized | Compound NOT metabolized | Compound NOT metabolized | Compound metabolized | Compound metabolized | Compound NOT metabolized | Compound NOT metabolized | Compound metabolized | Compound NOT metabolized | Compound metabolized | Compound metabolized | Compound metabolized | Compound NOT metabolized | Compound NOT metabolized | Compound metabolized | Compound metabolized | Compound NOT metabolized | Compound metabolized
CC(NC(C)(C)C)C(=O)c1cccc(Cl)c1 (stereo not given) [BUPROPION] | Compound NOT metabolized | Compound NOT metabolized | Compound NOT metabolized | Compound NOT metabolized | Compound NOT metabolized | Compound NOT metabolized | Compound NOT metabolized | Compound NOT metabolized | Compound NOT metabolized | Compound NOT metabolized | Compound NOT metabolized | Compound NOT metabolized | Compound NOT metabolized | Compound NOT metabolized | Compound NOT metabolized | Compound NOT metabolized | Compound NOT metabolized | Compound NOT metabolized | Compound NOT metabolized | Compound metabolized
O=C1CC2(CCCC2)CC(=O)N1CCCCN1CCN(c2ncccn2)CC1 [BUSPIRONE] | Compound NOT metabolized | Compound metabolized | Compound metabolized | Compound NOT metabolized | Compound NOT metabolized | Compound NOT metabolized | Compound NOT metabolized | Compound metabolized | Compound NOT metabolized | Compound NOT metabolized | Compound NOT metabolized | Compound metabolized | Compound metabolized | Compound metabolized | Compound NOT metabolized | Compound NOT metabolized | Compound metabolized | Compound NOT metabolized | Compound metabolized | Compound metabolized
CCCC(C)(COC(N)=O)COC(=O)NC(C)C (stereo not given) [CARISOPRODOL] | Compound NOT metabolized | Compound metabolized | Compound metabolized | Compound NOT metabolized | Compound metabolized | Compound metabolized | Compound metabolized | Compound metabolized | Compound metabolized | Compound NOT metabolized | Compound metabolized | Compound metabolized | Compound metabolized | Compound NOT metabolized | Compound metabolized | Compound NOT metabolized | Compound metabolized | Compound metabolized | Compound metabolized | Compound metabolized
